Patent publication US11717557B2, “Use of PRG4 as an anti-inflammatory agent” (Lubris LLC, priority 2015, dated 2023)

Key:
CD44 IgG1Fc = biological target: T1, CD44 IgG1Fc (Homo sapiens, UniProt P16070); assay: Direct ELISA: binding of coated macromolecules to CD44-IgG1Fc versus IgG1Fc; settings: wells coated at 400 μg/mL; CD44-IgG1Fc or IgG1Fc 1 μg/mL; p<0.001 where significant
T1 construct: purchased R & D systems
Procedure: High-binding microtiter plates (Corning, Sigma Aldrich, USA) were coated with rhPRG4 (Mr≅240 KDa), high molecular weight HA (HMW HA; Mr≈1,500 KDa) (R & D System, USA), medium molecular weight HA (MMW HA; Mr≈300 KDa) (R & D System) and vitronectin (Mr≅75 KDa) (Sigma Aldrich) at 400 μg/mL in PBS buffer (100 μL per well) overnight at 4° C. rhPRG4 is a full-length product produced by CHO-M cells (Lubris, Framingham, Mass., USA). Following washing with PBS+0.1% Tween 20, wells were blocked with 2% bovine serum albumin (BSA; 300 μL per well) for at least 2 hours at room temperature. CD44-IgG1Fc (R & D systems) or IgG1Fc (R & D systems), each at 1 μg/mL (100 μl per well), were added to the plate and incubated for 60 min at room temperature. Following washing with PBS+0.1% tween 20, anti-IgG1Fc-HRP (Sigma Aldrich) was added at 1:10,000 dilution (100 μL per well) and incubated for 60 min at room temp. Following washing with PBS+0.1% tween 20, the assay was developed using 1-step Turbo TMB ELISA reagent (ThermoScientific, USA) and absorbance was measured at 450 nm. The data represents an average of 4 independent assays, each with triplicate wells per group.

Prg4−/− synoviocytes = assay: Cytokine-induced Prg4−/− synoviocyte proliferation; assay type: cell-based, mice; settings: p<0.001
Procedure: rhPRG4 binding to CD44 and competition with high molecular weight hyaluronic acid (HMW HA) was evaluated using a direct enzyme linked immunosorbent assay (ELISA) and surface plasmon resonance. Sialidase-A and O-glycosidase digestion of rhPRG4 was performed and CD44 binding was evaluated using ELISA. Rheumatoid arthritis fibroblast-like synoviocytes (RA-FLS) were stimulated with interleukin-1 beta (IL-1β) or tumor necrosis factor alpha (TNF-α) for 48 hours in the presence or absence of rhPRG4 or HMW HA at 20, 40 and 80 μg/mL and cell proliferation was measured. CD44 contribution was assessed by co-incubation with an anti-CD44 antibody (IM7). The anti-proliferative effect of rhPRG4 was investigated following treatment of Prg4−/− synoviocytes with IL-1β or TNF-α in the presence or absence of IM7.
Synovial tissue was harvested from Prg4−/− and Prg4+/+ male mice (8-10 weeks old; 5-8 animals per genotype) and digested with pronase enzyme (2 mg/mL; Sigma Aldrich) in sterile HBSS buffer for 30 min at 37° C. with shaking. This was followed by digestion with type I collagenase (1 mg/mL; Sigma Aldrich) for 4 hours at 37° C. with shaking. The enzymatic reaction was stopped using DMEM+10% FBS. Cells were grown in DMEM+10% FBS and Prg4−/− synoviocytes were used between 2nd and 4th passages while Prg4+/+ synoviocytes were used in their second passage.

human whole blood = assay: Lubricin on tissue factor mediated inflammatory cytokine generation in whole blood; assay type: cell-based
Procedure: The effect of lubricin on recombinant tissue factor (TF) mediated inflammatory cytokine generation was studied using Biochip Array technology. In these studies recombiplastin brand (IL Laboratories) tissue factor was used to trigger the generation of inflammatory cytokines in human whole blood. The effect of lubricin at 0.57 mg/mL was studied by supplementing this agent prior to the addition of tissue factor to the whole blood. Tissue factor alone served as a positive control. The blood samples were centrifuged and plasma retrieved. This plasma was then profiled for the inflammatory cytokine profile on the Randox Biochip arrays. TF was supplemented to whole blood in a 1:10 dilution.

traumatic brain injury = assay: Traumatic brain injury model, controlled cortical impact, Western blotting of cerebral cortex; assay type: in vivo, rats
Procedure: Approximately one hour after traumatic brain injury to rats, using an established brain injury model involving a controlled cortical impact, rhPRG4 was administered intravenously to test rats at an approximate dose of 2.5 mg/Kg. Normal saline (0.9% NaCl) was administered intravenously to control rats. One day later, brains were harvested and the samples of the cerebral cortex surrounding the post-traumatic lesion were analyzed using Western blotting.

[1] = system: sodium urate crystal induced joint pain; assay: Urate crystal gout model, Von Frey paw withdrawal; assay type: in vivo; settings: rhPRG4 injection after urate crystals; two rats per group
Procedure: Male Lewis rats (10 weeks old; n=4) were injected with MSU suspension (50 μL; 5 mg/mL; Invivogen, California) in their knee joints. At 1 hour following MSU injection, rat knee joints were treated with 50 μL phosphate buffered saline (PBS; n=2) or rhPRG4 (50 μL; 2 mg/mL) (n=2). Paw withdrawal pressures were measured using an electronic Von Frey instrument, and data is present as percent change from baseline values.
Rats undergoing injection of sodium urate crystals were studied as a model of gout. 24 hours following the sodium urate crystal administration, rats developed joint pain. Two rats received saline while another two rats received rhPRG4 injection 24 hours after the urate crystals were introduced. These rats were studied every 12 hours utilizing the Von Frey method. This method determines afferent pain sensitization as a result of joint inflammation by probing the paws of the affected limb with a thin filament wire.

[2] = approx. 2.5 mg/Kg intravenously, versus normal saline

T1 sequence (P16070 with tags, fused parts or gaps limits assumed): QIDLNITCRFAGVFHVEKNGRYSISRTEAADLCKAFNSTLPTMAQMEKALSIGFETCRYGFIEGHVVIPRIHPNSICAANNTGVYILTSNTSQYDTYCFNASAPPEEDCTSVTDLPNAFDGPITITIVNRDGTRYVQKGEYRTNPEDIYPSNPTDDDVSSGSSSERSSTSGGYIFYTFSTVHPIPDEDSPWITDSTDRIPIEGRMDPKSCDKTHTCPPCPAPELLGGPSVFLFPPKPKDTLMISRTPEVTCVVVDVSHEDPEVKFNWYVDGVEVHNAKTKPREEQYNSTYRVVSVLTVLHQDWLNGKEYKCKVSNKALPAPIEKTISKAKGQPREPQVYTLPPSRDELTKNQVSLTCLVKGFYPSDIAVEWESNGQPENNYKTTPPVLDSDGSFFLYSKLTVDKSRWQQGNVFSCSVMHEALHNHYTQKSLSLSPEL

With “rhPRG4: full-length recombinant human PRG4 (lubricin) glycoprotein produced by CHO-M cells (Lubris), Mr≅240 KDa” the “450 nm absorbance in the CD44-IgG1Fc group versus the IgG1Fc group” value (CD44 IgG1Fc) was “significantly higher”, the “IL-1β induced proliferation of Prg4−/− synoviocytes” value (Prg4−/− synoviocytes) was “significantly inhibited” and the “TNF-α induced proliferation of Prg4−/− synoviocytes” value (Prg4−/− synoviocytes) was “significantly inhibited”. For the same substance, the “IL-6, IL-8, VEGF, TNF-α, IL-1α, IL-1β, MCP-1 and EGF” value (human whole blood; lubricin 0.57 mg/mL before tissue factor (1:10), versus TF alone) was “decrease”, the “TNF-α and VEGF levels” value (human whole blood; lubricin 0.57 mg/mL, tissue factor supplemented samples) was “pronounced decrease” and the “down regulation of Galectin 3” value (traumatic brain injury; approx. 2.5 mg/Kg intravenously about one hour after injury, brains harvested one day later, versus normal saline) was 74%. The “attenuation of post-traumatic synthesis of matrix metalloproteinase 9” value (traumatic brain injury; [2]) was 94%, the “inhibition of the conversion of pro-matrix metalloproteinase 2 to its enzymatically active form” value (traumatic brain injury; [2]) was 64% and the “reduction in the magnitude of post-traumatic influx of monocytes into the injured brain parenchyma” value (traumatic brain injury; approx. 2.5 mg/Kg intravenously, versus normal saline-treated rats) was 60%. For the same substance, the “reduction of the permeability of the blood-brain barrier” value (traumatic brain injury; assessed by level of albumin in traumatized brain tissue, approx. 2.5 mg/Kg intravenously) was 80% and the “pain (Von Frey method) versus rats which received placebo” value [1] was “less pain”.
